According to article PMC11189555, “Aryl amino acetamides prevent Plasmodium falciparum ring development via targeting the lipid-transfer protein PfSTART1” (Nature Communications, 2024):
pEC50: −log10 of the molar value.

Experiments:
[1] = tested on: PopE-F10 M-833 resistant clone (PfSTART1 N330K); assay: Growth inhibition assay (72 h, LDH activity); assay type: cell-based, Plasmodium falciparum
Method in brief: (§1)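 Synchronised ring-stage 3D7-derived clones (0.3-0.6% parasitemia, 2% haematocrit) grown 72 h in compound serial dilutions, some with 0, 0.25 or 2.5 mM glucosamine. Growth read as LDH activity after freeze-thaw (Malstat/NBT, A650), normalised to DMSO and uninfected RBC; EC50 from variable-slope log(inhibitor) fit.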

[2] = in vitro; details: human
[3] = tested on: PopD-D7 M-833 resistant clone (PfSTART1 N309K); assay: Growth inhibition assay (72 h, LDH activity); assay type: cell-based, Plasmodium falciparum; details: for (av-uRBC) / (DMSO-uRBC) x100: PopD-D7
Method in brief: as §1

Structure (SMILES): O=C(CNc1ccc(Cl)c(S(=O)(=O)N2CCOCC2)c1)Nc1ccc(F)c(Cl)c1 [compound 2, reference compound]
- pEC50 ([1]; Plasmodium falciparum, 72 h, Supplementary Table 1, PopE-F10 (N330K)): < 4.70
- resistance of the line compared with 3D7 ([1]; PopE-F10 (N330K), Fig 4B): highly resistant
- (av-uRBC) / (DMSO-uRBC) x100 ([1]; PopE-F10, 3.04832 nM, biological replicate 1): 114.401
- (av-uRBC) / (DMSO-uRBC) x100 ([1]; PopE-F10, 3.04832 nM, biological replicate 2): 112.198
- (av-uRBC) / (DMSO-uRBC) x100 ([1]; PopE-F10, 3.04832 nM, biological replicate 3): 118.159
- (av-uRBC) / (DMSO-uRBC) x100 ([1]; PopE-F10, 9.14495 nM, biological replicate 1): 113.83
- (av-uRBC) / (DMSO-uRBC) x100 ([1]; PopE-F10, 9.14495 nM, biological replicate 2): 112.634
- (av-uRBC) / (DMSO-uRBC) x100 ([1]; PopE-F10, 9.14495 nM, biological replicate 3): 115.839
- (av-uRBC) / (DMSO-uRBC) x100 ([1]; PopE-F10, 27.4348 nM, biological replicate 1): 109.84
- (av-uRBC) / (DMSO-uRBC) x100 ([1]; PopE-F10, 27.4348 nM, biological replicate 2): 113.332
- (av-uRBC) / (DMSO-uRBC) x100 ([1]; PopE-F10, 27.4348 nM, biological replicate 3): 126.539
- (av-uRBC) / (DMSO-uRBC) x100 ([1]; PopE-F10, 82.3045 nM, biological replicate 1): 112.064
- (av-uRBC) / (DMSO-uRBC) x100 ([1]; PopE-F10, 82.3045 nM, biological replicate 2): 115.064
- (av-uRBC) / (DMSO-uRBC) x100 ([1]; PopE-F10, 82.3045 nM, biological replicate 3): 112.119
- (av-uRBC) / (DMSO-uRBC) x100 ([1]; PopE-F10, 246.914 nM, biological replicate 1): 108.998
- (av-uRBC) / (DMSO-uRBC) x100 ([1]; PopE-F10, 246.914 nM, biological replicate 2): 111.627
- (av-uRBC) / (DMSO-uRBC) x100 ([1]; PopE-F10, 246.914 nM, biological replicate 3): 122.435
- (av-uRBC) / (DMSO-uRBC) x100 ([1]; PopE-F10, 740.741 nM, biological replicate 1): 107.242
- (av-uRBC) / (DMSO-uRBC) x100 ([1]; PopE-F10, 740.741 nM, biological replicate 2): 111.201
- (av-uRBC) / (DMSO-uRBC) x100 ([1]; PopE-F10, 740.741 nM, biological replicate 3): 127.133
- (av-uRBC) / (DMSO-uRBC) x100 ([1]; PopE-F10, 2222.22 nM, biological replicate 1): 102.224
- (av-uRBC) / (DMSO-uRBC) x100 ([1]; PopE-F10, 2222.22 nM, biological replicate 2): 112.371
- (av-uRBC) / (DMSO-uRBC) x100 ([1]; PopE-F10, 2222.22 nM, biological replicate 3): 122.627
- (av-uRBC) / (DMSO-uRBC) x100 ([1]; PopE-F10, 6666.67 nM, biological replicate 1): 102.39
- (av-uRBC) / (DMSO-uRBC) x100 ([1]; PopE-F10, 6666.67 nM, biological replicate 2): 105.46
- (av-uRBC) / (DMSO-uRBC) x100 ([1]; PopE-F10, 6666.67 nM, biological replicate 3): 111.965
- (av-uRBC) / (DMSO-uRBC) x100 ([1]; PopE-F10, 20000 nM, biological replicate 1): 70.532
- (av-uRBC) / (DMSO-uRBC) x100 ([1]; PopE-F10, 20000 nM, biological replicate 2): 73.7076
- (av-uRBC) / (DMSO-uRBC) x100 ([1]; PopE-F10, 20000 nM, biological replicate 3): 50.604
- Fold change compared to 3D7 ([1]; Supplementary Table 1, EC50 on PopE-F10 vs 3D7): > 117 fold
- CC50 [2]: > 40 µM
- pEC50 ([3]; Plasmodium falciparum, Supplementary Table 1, PopD-D7 (N309K), 72 h, read-out: EC50): < 4.70
- resistance of the line compared with 3D7 ([3]; PopD-D7 (N309K), Fig 4B): highly resistant
- (av-uRBC) / (DMSO-uRBC) x100 ([3]; conc. 3.04832 nM, Biological replicate 1 (2021-10-25)): 108.297
- (av-uRBC) / (DMSO-uRBC) x100 ([3]; conc. 3.04832 nM, Biological replicate 2 (2021-11-03)): 110.746
- (av-uRBC) / (DMSO-uRBC) x100 ([3]; conc. 3.04832 nM, Biological replicate 3 (2021-11-11)): 101.173
- (av-uRBC) / (DMSO-uRBC) x100 ([3]; conc. 9.14495 nM, Biological replicate 1 (2021-10-25)): 111.853
- (av-uRBC) / (DMSO-uRBC) x100 ([3]; conc. 9.14495 nM, Biological replicate 2 (2021-11-03)): 111.153
- (av-uRBC) / (DMSO-uRBC) x100 ([3]; conc. 9.14495 nM, Biological replicate 3 (2021-11-11)): 114.836
- (av-uRBC) / (DMSO-uRBC) x100 ([3]; conc. 27.4348 nM, Biological replicate 1 (2021-10-25)): 111.176
- (av-uRBC) / (DMSO-uRBC) x100 ([3]; conc. 27.4348 nM, Biological replicate 2 (2021-11-03)): 111.76
- (av-uRBC) / (DMSO-uRBC) x100 ([3]; conc. 27.4348 nM, Biological replicate 3 (2021-11-11)): 128.575
- (av-uRBC) / (DMSO-uRBC) x100 ([3]; conc. 82.3045 nM, Biological replicate 1 (2021-10-25)): 109.097
- (av-uRBC) / (DMSO-uRBC) x100 ([3]; conc. 82.3045 nM, Biological replicate 2 (2021-11-03)): 114.254
- (av-uRBC) / (DMSO-uRBC) x100 ([3]; conc. 82.3045 nM, Biological replicate 3 (2021-11-11)): 124.242
- (av-uRBC) / (DMSO-uRBC) x100 ([3]; conc. 246.914 nM, Biological replicate 1 (2021-10-25)): 110.536
- (av-uRBC) / (DMSO-uRBC) x100 ([3]; conc. 246.914 nM, Biological replicate 2 (2021-11-03)): 113.933
- (av-uRBC) / (DMSO-uRBC) x100 ([3]; conc. 246.914 nM, Biological replicate 3 (2021-11-11)): 129.518
- (av-uRBC) / (DMSO-uRBC) x100 ([3]; conc. 740.741 nM, Biological replicate 1 (2021-10-25)): 106.002
- (av-uRBC) / (DMSO-uRBC) x100 ([3]; conc. 740.741 nM, Biological replicate 2 (2021-11-03)): 112.781
- (av-uRBC) / (DMSO-uRBC) x100 ([3]; conc. 740.741 nM, Biological replicate 3 (2021-11-11)): 117.002
- (av-uRBC) / (DMSO-uRBC) x100 ([3]; conc. 2222.22 nM, Biological replicate 1 (2021-10-25)): 103.716
- (av-uRBC) / (DMSO-uRBC) x100 ([3]; conc. 2222.22 nM, Biological replicate 2 (2021-11-03)): 111.361
- (av-uRBC) / (DMSO-uRBC) x100 ([3]; conc. 2222.22 nM, Biological replicate 3 (2021-11-11)): 123.604
- (av-uRBC) / (DMSO-uRBC) x100 ([3]; conc. 6666.67 nM, Biological replicate 1 (2021-10-25)): 102.822
- (av-uRBC) / (DMSO-uRBC) x100 ([3]; conc. 6666.67 nM, Biological replicate 2 (2021-11-03)): 107.742
- (av-uRBC) / (DMSO-uRBC) x100 ([3]; conc. 6666.67 nM, Biological replicate 3 (2021-11-11)): 113.943
- (av-uRBC) / (DMSO-uRBC) x100 ([3]; conc. 20000 nM, Biological replicate 1 (2021-10-25)): 68.9276
- (av-uRBC) / (DMSO-uRBC) x100 ([3]; conc. 20000 nM, Biological replicate 2 (2021-11-03)): 85.5559
- (av-uRBC) / (DMSO-uRBC) x100 ([3]; conc. 20000 nM, Biological replicate 3 (2021-11-11)): 59.2149
- Fold change compared to 3D7 ([3]; Supplementary Table 1, EC50 on PopD-D7 vs 3D7): > 117 fold
